Values quoted from earlier work in patent publication US20140243296A1, “Organic Compounds” (Jagotec AG, priority 2011, published 2014).

Legend:
CYP 3A4 isoform = CYP 3A4 isoform (Homo sapiens, UniProt P08684); details: qualitative, prior-art knowledge
[1] = qualitative
P-glycoprotein (Pgp) = P-glycoprotein (Pgp) (Homo sapiens, UniProt P08183); details: qualitative, prior-art knowledge
Chain of P-glycoprotein (Pgp) (P08183 whole entry): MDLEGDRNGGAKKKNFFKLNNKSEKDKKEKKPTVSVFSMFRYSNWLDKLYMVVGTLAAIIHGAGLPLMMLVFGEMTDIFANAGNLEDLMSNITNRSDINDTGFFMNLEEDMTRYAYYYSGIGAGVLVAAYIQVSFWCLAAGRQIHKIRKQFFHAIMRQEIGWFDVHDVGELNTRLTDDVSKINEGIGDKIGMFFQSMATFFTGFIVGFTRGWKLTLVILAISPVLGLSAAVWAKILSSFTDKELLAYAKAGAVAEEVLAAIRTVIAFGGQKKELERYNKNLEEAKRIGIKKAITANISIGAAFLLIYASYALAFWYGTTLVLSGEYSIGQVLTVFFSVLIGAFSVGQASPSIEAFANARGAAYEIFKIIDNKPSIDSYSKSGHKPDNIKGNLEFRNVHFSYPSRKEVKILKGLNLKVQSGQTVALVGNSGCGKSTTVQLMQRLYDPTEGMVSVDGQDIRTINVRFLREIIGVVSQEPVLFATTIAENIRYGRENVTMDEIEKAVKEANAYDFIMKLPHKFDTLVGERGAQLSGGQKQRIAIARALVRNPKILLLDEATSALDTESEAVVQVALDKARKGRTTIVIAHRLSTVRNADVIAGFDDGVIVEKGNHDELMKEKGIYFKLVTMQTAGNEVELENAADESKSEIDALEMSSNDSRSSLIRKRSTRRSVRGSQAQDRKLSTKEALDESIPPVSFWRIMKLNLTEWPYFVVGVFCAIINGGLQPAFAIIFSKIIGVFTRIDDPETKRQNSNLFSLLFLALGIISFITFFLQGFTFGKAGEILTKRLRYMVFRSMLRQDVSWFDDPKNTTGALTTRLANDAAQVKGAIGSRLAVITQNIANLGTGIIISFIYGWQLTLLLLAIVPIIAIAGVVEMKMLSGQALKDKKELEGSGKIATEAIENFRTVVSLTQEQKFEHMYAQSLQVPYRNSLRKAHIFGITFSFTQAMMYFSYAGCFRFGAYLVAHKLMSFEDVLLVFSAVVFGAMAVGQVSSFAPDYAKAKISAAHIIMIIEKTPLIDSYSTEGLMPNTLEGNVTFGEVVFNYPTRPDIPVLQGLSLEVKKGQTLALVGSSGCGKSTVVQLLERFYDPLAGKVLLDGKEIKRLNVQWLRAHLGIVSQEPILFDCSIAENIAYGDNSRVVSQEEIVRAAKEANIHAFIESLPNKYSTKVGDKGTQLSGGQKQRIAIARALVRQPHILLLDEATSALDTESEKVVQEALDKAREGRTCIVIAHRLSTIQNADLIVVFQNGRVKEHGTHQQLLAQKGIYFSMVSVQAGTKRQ

Chain of CYP 3A4 isoform (P08684 whole entry, canonical isoform): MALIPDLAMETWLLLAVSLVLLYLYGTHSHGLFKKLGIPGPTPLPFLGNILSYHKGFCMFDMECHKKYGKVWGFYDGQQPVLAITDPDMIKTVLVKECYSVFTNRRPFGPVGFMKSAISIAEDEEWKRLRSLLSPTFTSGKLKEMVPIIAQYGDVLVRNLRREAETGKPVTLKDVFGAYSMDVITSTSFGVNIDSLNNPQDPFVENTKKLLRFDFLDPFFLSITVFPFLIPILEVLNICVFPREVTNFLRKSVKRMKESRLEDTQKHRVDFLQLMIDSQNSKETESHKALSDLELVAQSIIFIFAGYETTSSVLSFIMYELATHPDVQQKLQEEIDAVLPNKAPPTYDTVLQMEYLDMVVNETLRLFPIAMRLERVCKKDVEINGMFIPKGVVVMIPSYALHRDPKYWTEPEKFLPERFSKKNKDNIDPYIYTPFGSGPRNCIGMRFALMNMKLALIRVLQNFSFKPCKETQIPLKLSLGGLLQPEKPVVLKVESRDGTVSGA

## CC(C)(C)NC(=O)[C@@H]1C[C@@H]2CCCC[C@@H]2CN1C[C@@H](O)[C@H](Cc1ccccc1)NC(=O)[C@H](CC(N)=O)NC(=O)c1ccc2ccccc2n1 [saquinavir]
CYP 3A4 isoform
  inhibition of / affinity towards CYP, particularly CYP 3A4 isoform: weak inhibitors

## CC(C)CN(C[C@@H](O)[C@H](Cc1ccccc1)NC(=O)O[C@H]1CCOC1)S(=O)(=O)c1ccc(N)cc1 [amprenavir]
CYP 3A4 isoform
  inhibition of / affinity towards CYP, particularly CYP 3A4 isoform: weak inhibitors

## CC(C)CN(C[C@@H](O)[C@H](Cc1ccccc1)NC(=O)O[C@H]1CO[C@H]2OCC[C@H]21)S(=O)(=O)c1ccc(N)cc1 [Darunavir, darunavir]
[1]
  solubility: poorly soluble

## Cc1c(O)cccc1C(=O)N[C@@H](CSc1ccccc1)[C@H](O)CN1C[C@H]2CCCC[C@H]2C[C@H]1C(=O)NC(C)(C)C [nelfinavir]
CYP 3A4 isoform
  inhibition of / affinity towards CYP, particularly CYP 3A4 isoform: modest inhibition

## CC(C)(C)NC(=O)[C@@H]1CN(Cc2cccnc2)CCN1C[C@@H](O)C[C@@H](Cc1ccccc1)C(=O)N[C@H]1c2ccccc2C[C@H]1O [indinavir]
P-glycoprotein (Pgp)
  inhibitory effect on / affinity for Pgp: substantially no inhibitory effect
